ChEMBL document CHEMBL2146411, “Discovery of 3H-imidazo[4,5-c]quinolin-4(5H)-ones as potent and selective dipeptidyl peptidase IV (DPP-4) inhibitors” (Bioorg Med Chem, 2012)

Target: Dipeptidyl peptidase 4 (Bos taurus, UniProt P81425)
Sequence (P81425 whole entry): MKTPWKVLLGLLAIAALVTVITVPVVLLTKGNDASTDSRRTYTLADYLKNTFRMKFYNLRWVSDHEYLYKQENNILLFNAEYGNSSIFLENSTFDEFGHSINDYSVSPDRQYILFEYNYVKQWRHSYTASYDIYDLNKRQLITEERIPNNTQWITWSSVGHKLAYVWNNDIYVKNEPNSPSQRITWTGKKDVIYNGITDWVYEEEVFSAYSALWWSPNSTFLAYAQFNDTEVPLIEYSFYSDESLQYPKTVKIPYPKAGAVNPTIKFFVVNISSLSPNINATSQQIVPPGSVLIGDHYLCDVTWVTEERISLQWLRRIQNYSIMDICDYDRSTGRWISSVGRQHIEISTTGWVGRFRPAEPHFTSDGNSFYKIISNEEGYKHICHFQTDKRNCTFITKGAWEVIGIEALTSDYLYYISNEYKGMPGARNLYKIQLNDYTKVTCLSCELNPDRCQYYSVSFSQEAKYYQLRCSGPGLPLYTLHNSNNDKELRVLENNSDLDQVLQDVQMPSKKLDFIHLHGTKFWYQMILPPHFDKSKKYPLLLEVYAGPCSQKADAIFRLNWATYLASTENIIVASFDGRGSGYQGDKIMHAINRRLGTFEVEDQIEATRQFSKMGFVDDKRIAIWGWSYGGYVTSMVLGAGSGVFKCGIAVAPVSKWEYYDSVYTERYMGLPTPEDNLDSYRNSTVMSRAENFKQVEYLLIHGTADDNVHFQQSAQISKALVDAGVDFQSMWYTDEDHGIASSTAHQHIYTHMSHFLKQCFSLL
Description: Inhibition of bovine DPP4 by HTS assay

IC50: 0.676 µM
Compound: CC(C)=CCn1c(N2CCNCC2)nc2c1c(=O)[nH]c(=O)n2C
